According to patent publication US5118669A, “Peptides and intermediates therefor useful as antiallergic agents, vasodilators and immunoregulators” (Hitachi Chemical Co., Ltd., priority 1989, dated 1992):

Tests used:
IL-1 = experiment: Productivity of humoral factors by lymphocytes: IL-1; type: cell-based, human (healthy adult); settings: for IL-1: cultivation for a week, control 7.1; for production of IL-1: summary of Table 7
Protocol: (§1) Mononuclear cells separated by the density centrifugal method from blood of a healthy adult drawn in the presence of heparin were suspended in an RPMI-1640 culture medium containing 10% by volume of FBS. The suspension was divided into culture tubes (Falcon 2054) each at a concentration of 1×10^6 cells/ml, to which the captioned peptides were respectively added. Cultivation was made in an incubator for a week. After completion of the cultivation, the culture was centrifuged (1,500 rpm, 10 min.), and the supernatant collected and assayed for humoral factors. Interleukin 1 (IL-1) and tumor-nectrotizing factors were measured, respectively by a IL-1 radioimmunoassay kit (manufactured by Amersham International) and a TNF radioimmunoassay kit (manufactured by Medgenix). Measurement of interleukin 6 (IL-6) was made by the enzyme immunoassay method (ELISA) using IL-6 antibody (manufactured by Genzyme). Results of the measurements are shown in Table 7 wherein figures represent mean value±standard error.

[1] = tested on: lymphocytes (mononuclear cells from blood of a healthy adult); experiment: Blast formation of lymphocytes stimulated with various lectins (3H-thymidine uptake); type: cell-based, human (healthy adult); settings: for uptake of 3H-thymine by the lymphocytes stimulated with a lectin: particularly Con-A; for uptake of 3H-thymine by the lymphocytes stimulated with a lectin / influence upon uptake of 3H-thymine by lymphocytes in the absence of a mitogen: summary of Tables 3-6; for influence upon uptake of 3H-thymine by lymphocytes in the absence of a mitogen: no mitogen
Protocol: Mononuclear cells were collected by the density centrifugal method from blood of a healthy adult drawn in the presence of heparin and suspended in an RPMI-1640 culture medium (manufactured by Gibco) containing 10% by volume of bovine fetus serum (called FBS, manufactured by Dainihon Seiyaku). The suspension, adjusted to a concentration of 1×10^6 cells/ml, was divided into a 96-well Falcon microplate (manufactured by Becton Dickinson) in a volume of 100 μl/well. Then, a lectin, 1 μg/ml of PHA (phytohemagglutinin), 10 μg/ml of Con-A (concanavalin A) or 15 μg/ml of PWM (pokeweed mitogen) and one of the captioned peptides at a predetermined concentration were added followed by addition of a 10% FBS containing RPMI-1640 medium to a final liquid volume of 200 μl. Cultivation was made in a 5% by volume CO2 incubator at 37° C. for 72 hours, and 24 hours before completion of the cultivation 5 μCi of ^3 H-thymidine was added. The cells were recovered by a cell harvester (manufactured by Bio-Lab), and uptake of the ^3 H-thymidine was measured by a scintillation counter. Results of the measurement are shown in Table 3-Table 6 wherein figures indicate mean count (cpm)±standard error.

[2] = tested on: intraperitoneal mast cells of the rats; experiment: Inhibitory activity on histamine release from passively sensitized rat mast cells; type: cell-based; settings: for inhibitory activity on histamine release: at a concentration of 10^-5 M or higher, FIG. 5-7; for potency of histamine release inhibition compared with H-Asp-Ser-Asp-Pro-Arg-OH: versus comparative drug H-Asp-Ser-Asp-Pro-Arg-OH; for potency of histamine release inhibition compared with cromoglycate: versus cromoglycate
Protocol: Male Wistar rats weighing 300-350 g were passively sensitized, and intraperitoneal mast cells of the rats were employed for the test. Rat antiserum used in the passive sensitization was prepared in accordance with the method of Mota [Immunology, 7, p. 681 (1964)] and the method of Hamaoka [J. Immunology, 113, p. 958 (1974)]. Male Wistar rats (weighing 200-250 g) each were injected ovalbumin (10 mg/kg) in a volume of 5 ml/kg intramuscularly on both thighs and simultaneously 2×10^10 cells of killed Bordetella pertussis were intraperitoneally administered to immunize the animal. Blood was drawn from the animal under ether anesthesia via the abdominal aorta on day 12 of the initial sensitization,from which antiserum was separated. The antiserum was lyophilized and stored at -20° C. Titer of the antiserum was assayed by the 48-hour rat PCA reaction. […] The anti-albumin IgE serum of the rat was two fold diluted, and 1 ml of the diluted serum was intraperitoneally administered to sensitize the animal. The rat was killed by blooding 48 hours after the sensitization, and 15 ml of a phosphate buffered saline (NaCl 8 g, KCl 0.2 g, Na2 HPO4.12H2 O 2.88 g, KH2 PO4 0.2 g, EDTA.2Na 0.2 g and bovine serum albumin 1 g, dissolved in purified water to make 1 liter, pH 7.4 (called PBS(-) hereinbelow) was intraperitoneally injected. The rat was then given light abdominal massage for about 2 min. and subjected to laparotomy to collect cells in the abdominal cavity. The cell suspension was centrifuged (1,000 rpm, 10 min.) and then resuspended in PBS(-). The PBS(-) suspension was overlayered on gum arabic density (specific gravity 1.075) followed by centrifugal separation (2,500 rpm, 10 min.). Deposited cells were washed with PBS(-) and suspended in fresh PBS(+)[a solution in which the EDTA 2Na in PBS(-) is replaced by 0.1 g of CaCl2, called PBS(+)] and adjusted to 1×10^5 cells/ml. The cell suspension was divided into silicone-treated test tubes in a volume of 0.8 ml/tube, which were then preincubated at 37° C. for 10 min. In the cell suspension-containing test tube was placed 0.1 ml of a test solution from various solutions diluted with PBS(+) followed by incubation at 37° C. for 15 min. To the test tube was then added 0.1 ml of a mixed solution of ovalbumin antigen (final concentration 1 mg/ml) and phosphatidyl-L-serine (final concentration 100 μm/ml) followed by incubation for additional 15 min. to release histamine. For cromoglycate, one of the comparative drugs, the drug was added 30 sec. prior to the addition of the antigen, and incubation was then made for additional 15 min. The reaction was terminated by addition of 1 ml of ice-cooled PBS(+), and the reaction mixture was centrifuged at 2,500 rpm for 10 min. To 2 ml of the supernatant was added 1 ml of a 4% solution of perchloric acid, and the mixture was assayed for free histamine. For the assay of total histamine, a sample was prepared by placing 0.8 ml of a suspension of untreated mast cells in boiling water for 10 min. followed by addition of 4% perchloric acid.
Amount of histamine in the sample was assayed by fluorimetry, and percent histamine release (%) was calculated by the equation [formula]

TNF = experiment: Productivity of humoral factors by lymphocytes: TNF; type: cell-based, human (healthy adult); settings: for TNF: cultivation for a week, control 2,020; for production of TNF: summary of Table 7
Protocol: as §1

IL-6 = experiment: Productivity of humoral factors by lymphocytes: IL-6; type: cell-based, human (healthy adult); settings: for IL-6: cultivation for a week, control 270; for production of IL-6: summary of Table 7
Protocol: as §1

[3] = tested on: thoracic aorta of male rabbits contracted with potassium chloride; experiment: Vasodilating action on aortic spiral strip contracted with potassium chloride; set-up: species or system rabbit; settings: potassium chloride contraction
Protocol: (§2) The thoracic aorta of male rabbits weighing 2.5-3 kg was excised and aortic specimens of spiral strip 25-30 mm in length were prepared. […] The specimen was cumulatively administered with H-Asp-Gly-Lys-OH, H Ser-Asp-Gly-Lys-OH, or H-Asp-Ser-Asp-Gly-Lys-OH or H-Ala-Asp-Ser-Asp-Gly-Lys-OH, and relaxation reaction of the blood vessel was observed. As comparative drug were employed nitroprusside (sodium salt) and verapamil.

[4] = tested on: thoracic aorta of male rabbits contracted with norepinephrine; experiment: Vasodilating action on aortic spiral strip contracted with norepinephrine; set-up: species or system rabbit; settings: norepinephrine contraction
Protocol: as §2

[5] = Con-A (10 μg/ml), peptide 10^-6 M, control 37,800
[6] = Con-A (10 μg/ml), peptide 10^-8 M, control 37,800
[7] = PHA (1 μg/ml), peptide 10^-6 M, control 69,600
[8] = PHA (1 μg/ml), peptide 10^-8 M, control 69,600
[9] = PWM (15 μg/ml), peptide 10^-6 M, control 13,600
[10] = PWM (15 μg/ml), peptide 10^-8 M, control 13,600
[11] = mitogen None, peptide 10^-6 M, control 1,090
[12] = mitogen None, peptide 10^-8 M, control 1,090

Compound	IL-1 (IL-1; additive 10^-6 M)	IL-1 (IL-1; additive 10^-8 M)	production of IL-1 (IL-1)	Uptake of 3H-thymidine by lymphocytes [1, 5]	Uptake of 3H-thymidine by lymphocytes [1, 6]	Uptake of 3H-thymidine by lymphocytes [1, 7]	Uptake of 3H-thymidine by lymphocytes [1, 8]	Uptake of 3H-thymidine by lymphocytes [1, 9]	Uptake of 3H-thymidine by lymphocytes [1, 10]	uptake of 3H-thymine by the lymphocytes stimulated with a lectin [1]	Uptake of 3H-thymidine by lymphocytes [1, 11]	Uptake of 3H-thymidine by lymphocytes [1, 12]	influence upon uptake of 3H-thymine by lymphocytes in the absence of a mitogen [1]	TNF (TNF; additive 10^-6 M)	TNF (TNF; additive 10^-8 M)	production of TNF (TNF)	IL-6 (IL-6; additive 10^-6 M)	IL-6 (IL-6; additive 10^-8 M)	production of IL-6 (IL-6)	Percent relaxation ([3]; compound 10^-4 M)	other results
H-ADSDGK-OH [ADSDGK, H-Ala-Asp-Ser-Asp-Gly-Lys-OH]	11.2 fM/ml	11.3 fM/ml	promote production	21,500 cpm	24,600 cpm	63,000 cpm	64,100 cpm	13,600 cpm	14,500 cpm	strongly inhibit	900 cpm	797 cpm	little influence	3,620 pg/ml	4,120 pg/ml	promote production	270 U/ml	270 U/ml	promote production	–	inhibitory activity on histamine release [2]: clear inhibitory activity; potency of histamine release inhibition compared with H-Asp-Ser-Asp-Pro-Arg-OH [2]: higher; potency of histamine release inhibition compared with cromoglycate [2]: nearly equal to or higher
nitroprusside [reference compound]	–	–	–	–	–	–	–	–	–	–	–	–	–	–	–	–	–	–	–	35.7%	Percent relaxation ([3]; compound 10^-5 M): 24.3%; Percent relaxation ([3]; compound 10^-6 M): 11.4%; Percent relaxation ([3]; compound 10^-7 M): 1.4%; Percent relaxation ([3]; compound 10^-8 M): 0%; Percent relaxation ([4]; compound 10^-4 M): 98.8%; Percent relaxation ([4]; compound 10^-5 M): 93.8%; Percent relaxation ([4]; compound 10^-6 M): 86.0%; Percent relaxation ([4]; compound 10^-7 M): 59.4%; Percent relaxation ([4]; compound 10^-8 M): 16.1%
H-DSDGK-OH [DSDGK, H-Asp-Ser-Asp-Gly-Lys-OH]	8.3 fM/ml	7.3 fM/ml	promote production	19,300 cpm	17,900 cpm	56,900 cpm	62,000 cpm	13,000 cpm	9,550 cpm	strongly inhibit	877 cpm	887 cpm	little influence	4,270 pg/ml	4,100 pg/ml	promote production	400 U/ml	280 U/ml	promote production	–	–
COc1ccc(CCN(C)CCCC(C#N)(c2ccc(OC)c(OC)c2)C(C)C)cc1OC (stereo not drawn) [Verapamil, verapamil, reference compound]	–	–	–	–	–	–	–	–	–	–	–	–	–	–	–	–	–	–	–	100%	Percent relaxation ([3]; compound 10^-5 M): 100%; Percent relaxation ([3]; compound 10^-6 M): 97.1%; Percent relaxation ([3]; compound 10^-7 M): 68.3%; Percent relaxation ([3]; compound 10^-8 M): 7.1%; Percent relaxation ([4]; compound 10^-4 M): 68.6%; Percent relaxation ([4]; compound 10^-5 M): 47.1%; Percent relaxation ([4]; compound 10^-6 M): 20.6%; Percent relaxation ([4]; compound 10^-7 M): 4.6%; Percent relaxation ([4]; compound 10^-8 M): 0%
H-Ser-Asp-Gly-Lys-OH (H-SDGK-OH) [tetrapeptide]	11.2 fM/ml	10.7 fM/ml	promote production	24,000 cpm	24,200 cpm	59,000 cpm	62,100 cpm	9,000 cpm	10,000 cpm	strongly inhibit	911 cpm	1,436 cpm	little influence	4,260 pg/ml	3,620 pg/ml	promote production	280 U/ml	350 U/ml	promote production	18.6%	Percent relaxation ([3]; compound 10^-5 M): 7.2%; Percent relaxation ([3]; compound 10^-6 M): 0%; Percent relaxation ([3]; compound 10^-7 M): 0%; Percent relaxation ([3]; compound 10^-8 M): 0%; inhibitory activity on histamine release [2]: clear inhibitory activity; potency of histamine release inhibition compared with H-Asp-Ser-Asp-Pro-Arg-OH [2]: higher; potency of histamine release inhibition compared with cromoglycate [2]: nearly equal to or higher; Percent relaxation ([4]; compound 10^-4 M): 52.6%; Percent relaxation ([4]; compound 10^-5 M): 25.0%; Percent relaxation ([4]; compound 10^-6 M): 17.7%; Percent relaxation ([4]; compound 10^-7 M): 9.1%; Percent relaxation ([4]; compound 10^-8 M): 1.7%
